Data set [1] deals with ATP synthesis. As to the kind of experiment: ATP tests (glycolysis/OXPHOS fraction and total ATP per cell) after MnTBAP. Type of data set: cell-based, human.
Data set [2] has as its system HTRA2. As to the kind of experiment: HTRA2 fluorescence intensity per cell after MnTBAP. It is filed as cell-based, human. The method, then:
(§1) Cells plated on slides were fixed with 2% PFA and permeabilized with 0.5% Triton X-100. The slides were incubated in blocking buffer (BSA 5% in PBS) for 1 h then with the primary antibody (POLγ and HTRA3 purchased from SantaCruz Biotechnology, or as available from any other provider) for 1 h at room temperature. A second, fluorescent antibody (goat anti-mouse and goat anti-rabbit Alexa® Fluor 488, Alexa® Fluor 555, conjugated secondary antibodies from Invitrogen or by any other provider), was incubated for 1-2 h at room temperature, and DNA was stained with 10 μg/ml Hoechst.
(§2) Image analysis was carried out using Perkin-Elmer Ultraview RS Nipkow-spinning disk confocal microscope. Three-dimensional reconstruction of all the z-stacks was achieved using the 3D-volume rendering of IMARIS software (Bitplane). A regular fluorescence microscope can also be used, including for fluorescence quantification, although in this last case it will quantify one section of the cell only and not the entire volume; this quantification may be sufficient for comparative studies (normal versus patient cells). Confocal acquisition (even in the absence of spinning disk) in 3D allows quantification of the entire volume, and differences among samples are therefore more robust. […]

Data set [3] concerns POLG1. Kind of data set: POLG1 fluorescence intensity per cell after MnTBAP. Type of data set: cell-based, human. The note with it: normal fibroblasts. The method, then: as §1, §2
The subject of data set [4] is peroxynitrite. Kind of data set: Peroxynitrite levels by DHR123 fluorescence in fibroblasts. The note with it: all control and patient cells; 24 h. Type of data set: cell-based, human. From the text:
High levels of ROS react with nitric oxide (NO), thereby quenching NO and promoting the formation of peroxynitrite (ONOO^−), which is a powerful oxidant and nitration agent^31.
(§3) The inventors quantified fluorescence intensities on cells as summarized in Table 1 before and after treatment with MnTBAP (purchased from Millipore) of DCF and of DHR123 per cell (FIGS. 9(a) and (b)), as well as fluorescence intensities of HTRA2 (FIG. 9(c)), HTRA3 (FIG. 9(d)), POLG1 (FIG. 9(e)) per cell.
(§4) Manganase(III)tetrakis(4-benzoic acid)porphyrin (MNTBAP) is a synthetic metalloporphyrin which mimics superoxide dismutase and scavenges ROS and peroxynitrite^32.

Data set [5] has as its system mtDNA content. As to the kind of experiment: qPCR of mtDNA content after MnTBAP. Type of data set: cell-based, human.
The subject of data set [6] is reactive oxygen species (ROS). Kind of data set: ROS levels by DCFHDA (DCF) fluorescence in fibroblasts. Type of data set: cell-based, human. The note with it: control and UVSS fibroblasts; 24 h.
Excerpt: The inventors assessed the relative levels of oxidative stress using the fluorescent probe dichlorofluorescein diacetate (DCFHDA), which prevalently detects reactive oxygen species (ROS)^29. They reported that whereas UV^SS cells display moderate (25%) increase of signal compared to controls, all CS cells are characterized by higher levels (1.6 to 2-fold) of oxidative stress (FIG. 8a), in agreement with a previous finding^30.
as §3, §4

In data set [7] the test system is adult primary fibroblasts IMR-90 and BJ. Kind of data set: Cell survival of primary cells in culture at longer incubation times. Type of data set: cell-based. How it is done:
As KSTI (serine protease inhibitor) and MnTBAP (ROS/RNS scavenger) rescue the CS phenotype by 24 h treatment, the inventors assessed cell survival in culture at longer incubation times with either drug. They used doses of the drugs as those affecting CS cells: 100 μg/ml of KSTI and 100 μM MnTBAP on adult primary fibroblasts IMR-90 and BJ (from ATCC repository). […] Additional experiments are ongoing to test the survival at longer incubation times and lower doses of the drug.

Data set [8] relates to HTRA3. Kind of data set: HTRA3 fluorescence intensity per cell after MnTBAP. It is filed as cell-based, human. How it is done: as §1
(§5) Image analysis was carried out using Perkin-Elmer Ultraview RS Nipkow-spinning disk confocal microscope. Three-dimensional reconstruction of all the z-stacks was achieved using the 3D-volume rendering of IMARIS software (Bitplane). A regular fluorescence microscope can also be used, including for fluorescence quantification, although in this last case it will quantify one section of the cell only and not the entire volume; this quantification may be sufficient for comparative studies (normal versus patient cells). Confocal acquisition (even in the absence of spinning disk) in 3D allows quantification of the entire volume, and differences among samples are therefore more robust.
as §3

Data set [9] has as its system POLG1 levels. As to the kind of experiment: POLG1 levels in CSB-silenced HeLa cells after protease inhibitors. It is filed as cell-based, human.
Data set [10] has as its system POLG1 levels. As to the kind of experiment: POLG1 immunofluorescence in patient fibroblasts after treatment with protease inhibitors. It is filed as cell-based, human. The note with it: 5 hours. The method, then: as §1, §5
The inventors treated fibroblasts from healthy individuals, from UV^SS and from Cockayne syndrome of type I and II (the last being the more severe), with protease inhibitors MG132 (5 μM) and KSTI (100 μg/ml) for 5 hours and then tested for POLG1 levels.

Where [11] appears, read: CS type I and type II fibroblasts 359, 797 and 816, MG132 5 μM or KSTI 100 μg/ml.
The mark [12] stands for this setting: CS type I fibroblasts 539 and 548, MG132 5 μM or KSTI 100 μg/ml.
Where [13] appears, read: fibroblasts of healthy individuals and of UVSS, MG132 5 μM or KSTI 100 μg/ml.

Peptide text beside a SMILES is read from it. * marks the point of attachment. Cbz = O=C(OCc1ccccc1)*

With `O=C(O)c1ccc(/C2=C3\C=CC(=N3)/C(c3ccc(C(=O)O)cc3)=c3/cc/c4[n]3[Mn]([Cl])[n]3c2ccc3/C(c2ccc(C(=O)O)cc2)=C2/C=CC(=N2)\C=4c2ccc(C(=O)O)cc2)cc1` [MnTBAP, Manganese (III) tetrakis (4-benzoic acid) porphyrin chloride], in data set [1] (CS cells, 24 h treatment), the “glycolytic shift / fraction of ATP produced by mitochondria” value is “attenuated”. In addition, the “total ATP levels” value in data set [1] (UVSS and CS cells) was “remain relatively high”. In addition, the HTRA2 reduction entry in data set [2] (UVSS and all CS cells, compared with control cells) is reported as “dramatically higher”. In addition, the “levels of serine protease HTRA2” value in data set [2] (control cells) is reported as “reduce by one half”. In addition, in data set [3], the “levels of POLG1” value is “increased levels of POLG1”. For the same molecule, in data set [4], the “levels of peroxynitrite, measured by DHR123” value was “greatly reduced”. Besides, the mtDNA content entry in data set [5] (control fibroblasts) is “does not change the mtDNA content”; in [5] (patient cells) it was “becomes close to the value of controls”. For the same molecule, the “levels of ROS, measured by DCFHDA” value in [6] is “decreased by two thirds”. In data set [7] (100 μM MnTBAP, continuous treatment by 3 days), the “cell survival (cell number and cell shape)” value is “did not show effect on cell survival”. Further, the “levels of HTRA3” value is on record as “restored control levels of HTRA3” in data set [8] (CS cells), “did reduce” in data set [8] (UVSS cells) and “increased the levels of HTRA3” in data set [8] (control cells).
In the case of `CC(C)C[C@@H](C=O)NC(=O)[C@H](CC(C)C)NC(=O)[C@H](CC(C)C)NC(=O)OCc1ccccc1` [MG132, benzyl N-[(2S)-4-methyl-1-[[(2S)-4-methyl-1-[[(2S)-4-methyl-1-oxopentan-2-yl]amino]-1-oxopentan-2-yl]amino]-1-oxopentan-2-yl]carbamate] (Cbz-Leu-Leu-Leu-aldehyde), in data set [9], the POLG1 levels entry is “restored normal POLG1 levels”. For the same molecule, the POLG1 immunofluorescence level entry is “POLG1 levels exceeded those of untreated healthy individuals” in data set [10] (setting [11]); “Significant modifications in two CS type I fibroblasts (539 and 548) were not observed” in data set [10] (setting [12]); “increased to levels of healthy individual” in data set [10] (CS type II fibroblasts 177, MG132 5 μM); “increased levels of POLG1 immunofluorescence” in data set [10] (setting [13]).

B1: KSTI: Kunitz soybean trypsin inhibitor, a natural serine protease inhibitor (protein)
chain: DFVLDNEGNPLENGGTYYILSDITAFGGIRAAPTGNERCPLTVVQSRNELDKGIGTIISSPYRIRFIAEGHPLSLKFDSFAVIMLCVGIPTEWSVVEDLPEGPAVKIGENKDAMDGWFRLERVSDDEFNNYKLVFCPQQAEDDKCGDIGISIDHDDGTRRLVVSKNKPLVVQFQKLDKESL
In the case of B1, the POLG1 levels result in data set [9] is given as “restored normal POLG1 levels”. Moreover, the POLG1 immunofluorescence level entry in data set [10] (setting [11]) is “POLG1 levels exceeded those of untreated healthy individuals”; in data set [10] (setting [12]) it was “Significant modifications in two CS type I fibroblasts (539 and 548) were not observed”; in data set [10] (setting [13]) it was “increased levels of POLG1 immunofluorescence”. Moreover, in [7] (100 μg/ml KSTI, continuous treatment by 6 days), the “cell survival (cell number and cell shape)” value was “did not show effect on cell survival”.
